Data published in patent US20230390222A1, “Amyloid-Binding Peptoids with Broad-Spectrum Antiviral, Antibacterial, and Antifungal Activity” (The Board of Trustees of the Leland Stanford Junior …, priority 2021, published 2023).
Entries after “also recorded” stand apart in the source; their conditions may differ.

How the values were obtained:
[1] = ThT fibril formation assay comparing kinetics of Aβ40 wild-type and Aβ40-E22Δ (Osaka) mutant; conditions: standard ThT fibril formation conditions, peptide alone
Experimental: FIG. 5 depicts a ThT fibril formation assay comparing fibril formation kinetics of Aβ40 wild-type and the Aβ40-E22Δ (Osaka) FAD mutant.
FIG. 5 illustrates exemplary data of preliminary experiments in which Aβ40-E22Δ was synthesized and subjected to standard conditions utilized in ThT fibril formation assays. FIG. 5 illustrates that the deletion of the E22 residue leads to a pronounced acceleration of fibril formation, which dropped from 196±7 min with Aβ40-WT to 38±1 min with Aβ40-E22Δ. The Aβ40-E22Δ mutant is much more amyloidogenic than Aβ40-WT, which may complicate efforts to block its amyloidogenicity.

Aβ40 = biological target: T1, Aβ40 (Homo sapiens, UniProt P05067); assay: Thioflavin T (ThT) fluorescence assay of Aβ40 fibril formation in presence of LL-37 or peptoid; type: biochemical
T1 construct: The 40 AA long isoform, Aβ40, is formed predominantly

P. gingivalis = assay: Antimicrobial activity against P. gingivalis; type: cell-based, Porphyromonas gingivalis
HSV-1 = assay: Antiviral activity (inactivation) against HSV-1; type: cell-based, Herpes Simplex Virus-1
P. aeruginosa = assay: Activity against P. aeruginosa; type: cell-based
S. aureus = assay: Activity against S. aureus; type: cell-based
M tuberculosis = assay: Activity against M tuberculosis; type: cell-based
C. albicans = assay: Activity against C. albicans; type: cell-based

T1 sequence (P05067 672-711 limits assumed): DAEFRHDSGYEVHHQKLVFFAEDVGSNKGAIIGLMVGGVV

## Aβ40-E22Δ: FAD-causing Aβ40 variant with deletion of E22, known as the Osaka mutation (DAEFRHDSGYEVHHQKLVFFADVGSNKGAIIGLMVGGVV; Amyloid-beta protein 40; UniProt P05067 672-711, looked up, variant E22*)
[1]
  fibril formation (time) in ThT assay: 38 ± 1 min

## Aβ40-WT: 40 amino acid long wild-type isoform of Amyloid β
[1]
  fibril formation (time) in ThT assay: 196 ± 7 min

## H-(NLys-Nspe-Nspe)4-NH2 [Peptoid 1]
Aβ40; FIG. 1C, 20 μM peptide/peptoid concentrations
  anti-amyloid activity (prevention of Aβ amyloid formation): shares the same anti-amyloid activity
P. gingivalis
  concentration with antimicrobial activity / killing P. gingivalis bacteria: 4 µg/mL
HSV-1
  concentration with antiviral activity / totally inactivating HSV-1 virus: 4 µg/mL
P. aeruginosa
  activity against pathogen: active
S. aureus
  activity against pathogen: active
M tuberculosis
  activity against pathogen: active
C. albicans
  activity against pathogen: active

## LL-37: peptide produced by the human innate immune system, ~4500 g/mol, 37 amino acids
Aβ40; 1:1 equimolar ratio to wildtype Aβ40
  Aβ fibril formation (ThT fluorescence): totally prevented from forming Aβ fibrils; also recorded: blocks fibril formation
Aβ40; lower relative (sub-stoichiometric) molar amounts vs Aβ40
  kinetics of Aβ fibril formation (ThT fluorescence): slow the kinetics of fibril formation; also recorded: slows it down in a dose-dependent manner
Aβ40; sub-stoichiometric LL-37 addition
  final fluorescence at endpoint in ThT fibril formation assay: higher fluorescence output at endpoint
